Experimental data from the supplement of paper PMC11451515.

Test system: NOMO1
Experiment: cell viability relative to DMSO control; higher = less cytotoxic
Settings: 48 h
Method in brief: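 In 1536-well plates, 5 μl of leukemia cells were seeded per well: 500 cells/well for NOMO1 or SEM and 1000 cells/well for P12-Ichikawa. Each line had first been adapted for at least four passages in each medium. Library compounds in DMSO were pin-dosed at 11 threefold concentrations between 47 μM and 0.79 nM, and CellTiter-Glo One luminescence was read after 48 h at 37°C. Viability is a per-plate percentage relative to DMSO wells, with cell-free wells as background.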

[1] = HPLM + 10% dialyzed FBS, 0.000781 µM
[2] = HPLM + 10% dialyzed FBS, 0.00234 µM
[3] = HPLM + 10% dialyzed FBS, 0.00702 µM
[4] = HPLM + 10% dialyzed FBS, 0.0211 µM
[5] = HPLM + 10% dialyzed FBS, 0.0632 µM
[6] = HPLM + 10% dialyzed FBS, 0.19 µM
[7] = HPLM + 10% dialyzed FBS, 0.569 µM
[8] = HPLM + 10% dialyzed FBS, 1.71 µM
[9] = HPLM + 10% dialyzed FBS, 5.12 µM
[10] = HPLM + 10% dialyzed FBS, 15.4 µM
[11] = HPLM + 10% dialyzed FBS, 46.1 µM
[12] = RPMI 5 mM glucose + 10% FBS, 0.000781 µM
[13] = RPMI 5 mM glucose + 10% FBS, 0.00234 µM
[14] = RPMI 5 mM glucose + 10% FBS, 0.00702 µM
[15] = RPMI 5 mM glucose + 10% FBS, 0.0211 µM
[16] = RPMI 5 mM glucose + 10% FBS, 0.0632 µM
[17] = RPMI 5 mM glucose + 10% FBS, 0.19 µM
[18] = RPMI 5 mM glucose + 10% FBS, 0.569 µM
[19] = RPMI 5 mM glucose + 10% FBS, 1.71 µM
[20] = RPMI 5 mM glucose + 10% FBS, 5.12 µM
[21] = RPMI 5 mM glucose + 10% FBS, 15.4 µM
[22] = RPMI 5 mM glucose + 10% FBS, 46.1 µM
[23] = RPMI 5 mM glucose + 10% dialyzed FBS, 0.000781 µM
[24] = RPMI 5 mM glucose + 10% dialyzed FBS, 0.00234 µM
[25] = RPMI 5 mM glucose + 10% dialyzed FBS, 0.00702 µM
[26] = RPMI 5 mM glucose + 10% dialyzed FBS, 0.0211 µM
[27] = RPMI 5 mM glucose + 10% dialyzed FBS, 0.0632 µM
[28] = RPMI 5 mM glucose + 10% dialyzed FBS, 0.19 µM
[29] = RPMI 5 mM glucose + 10% dialyzed FBS, 0.569 µM
[30] = RPMI 5 mM glucose + 10% dialyzed FBS, 1.71 µM
[31] = RPMI 5 mM glucose + 10% dialyzed FBS, 5.12 µM
[32] = RPMI 5 mM glucose + 10% dialyzed FBS, 15.4 µM
[33] = RPMI 5 mM glucose + 10% dialyzed FBS, 46.1 µM

Row | Compound | cell viability [1] | cell viability [2] | cell viability [3] | cell viability [4] | cell viability [5] | cell viability [6] | cell viability [7] | cell viability [8] | cell viability [9] | cell viability [10] | cell viability [11] | cell viability [12] | cell viability [13] | cell viability [14] | cell viability [15] | cell viability [16] | cell viability [17] | cell viability [18] | cell viability [19] | cell viability [20] | cell viability [21] | cell viability [22] | cell viability [23] | cell viability [24] | cell viability [25] | cell viability [26] | cell viability [27] | cell viability [28] | cell viability [29] | cell viability [30] | cell viability [31] | cell viability [32] | cell viability [33]
1 | COc1ccc(-c2nc(N3CCOCC3)c3sc(CN(C)c4ncc(C(=O)NO)cn4)cc3n2)cn1 | 109% | 132% | 86.2% | 62.8% | 12.6% | 8.22% | 7.83% | 8.13% | 7.89% | 7.72% | 6.31% | 110% | 112% | 100% | 65.4% | 14.2% | 8.1% | 8.11% | 8.29% | 7.05% | 7.28% | 6.26% | 117% | 132% | 104% | 73.7% | 22.8% | 7.51% | 7.58% | 7.17% | 6.72% | 6.98% | 6.02%
2 | CCC(C)(Oc1ccc(C2(c3ccc(OC(C)(CC)C(=O)O)cc3)CCCCC2)cc1)C(=O)O (centres undefined) | 89.3% | 107% | 89.4% | 108% | 118% | 101% | 93.8% | 124% | 102% | 85.1% | 99.4% | 104% | 101% | 95.5% | 99.2% | 102% | 89.4% | 97.6% | 97.7% | 92.8% | 84% | 84.3% | 100% | 94.4% | 111% | 96.1% | 99.8% | 94% | 107% | 103% | 87% | 93.9% | 101%
3 | C=C(C)[C@H]1Cc2c(ccc3c2O[C@@H]2COc4cc(OC)c(OC)cc4[C@@H]2C3=O)O1 | 103% | 102% | 120% | 110% | 124% | 116% | 107% | 89.2% | 52.6% | 37.3% | 28.8% | 105% | 118% | 105% | 106% | 109% | 102% | 102% | 102% | 63.8% | 23.9% | 20.4% | 99.3% | 101% | 98.4% | 99.8% | 104% | 104% | 87.8% | 98.7% | 81.5% | 29.5% | 24.1%
4 | CC(C)C[C@H](NC(=O)[C@H](CCc1ccccc1)NC(=O)CN1CCOCC1)C(=O)N[C@@H](Cc1ccccc1)C(=O)N[C@@H](CC(C)C)C(=O)[C@@]1(C)CO1 | 94.7% | 95.3% | 103% | 99.4% | 7.57% | 8.63% | 5.74% | 4.23% | 1.47% | 0.357% | 0.4% | 77.8% | 88.9% | 90% | 83.9% | 6.13% | 6.37% | 4.68% | 3.7% | 2.13% | -0.195% | -0.384% | 90.9% | 93.3% | 98.5% | 92% | 8.53% | 8.08% | 5.45% | 3.98% | 2.7% | 0.526% | -0.204%
5 | C[S+](=O)([O-])N1CCc2c(-c3cnc(N)nc3)nc(N3CCOCC3)nc21 | 105% | 102% | 112% | 118% | 104% | 107% | 86.6% | 76.4% | 77.9% | 76.2% | 74.4% | 107% | 104% | 99.3% | 110% | 102% | 99.5% | 101% | 88.9% | 95% | 81.9% | 74% | 99% | 103% | 99.6% | 97.7% | 93.6% | 96.9% | 77.3% | 69.4% | 73.7% | 69.7% | 56.8%
6 | CN1\C(=C(\O)C2=CC=CC=C2[S+]1([O-])=O)C(=O)NC3=NC=C(C)S3 | 101% | 111% | 101% | 114% | 99.5% | 116% | 113% | 116% | 102% | 86.1% | 116% | 81.1% | 91.5% | 88.4% | 91.7% | 98.7% | 96.8% | 101% | 88.3% | 96.7% | 99.3% | 95.9% | 84.2% | 86.3% | 85.6% | 81.9% | 81.5% | 93.6% | 79.6% | 76% | 91.9% | 92.7% | 91.8%
7 | CCOC(=O)\C1=C(/C)N\C2=C(C1C3=CC=C(C=C3)C4=CC=CC=C4)\C(=O)CC(C)(C)C2 (centres undefined) | 125% | 97.2% | 125% | 117% | 116% | 114% | 102% | 102% | 106% | 82.3% | 73.6% | 107% | 103% | 102% | 108% | 105% | 109% | 103% | 102% | 106% | 87% | 88.2% | 110% | 103% | 111% | 114% | 113% | 95.1% | 104% | 112% | 90.1% | 73.7% | 74.8%
8 | C=CC(=O)N1CCC[C@@H](n2nc(-c3ccc(Oc4ccccc4)cc3)c3c(N)ncnc32)C1 |  |  |  |  |  |  |  |  |  |  |  | 117% | 117% | 113% | 101% | 110% | 99.2% | 110% | 107% | 132% | 108% | 121% | 122% | 123% | 113% | 102% | 119% | 113% | 118% | 117% | 120% | 129% | 95.9%
9 | C=C[C@H]1CN2CC[C@H]1C[C@H]2[C@H](O)c1ccnc2ccc(OC)cc12 | 116% | 89.2% | 96.3% | 109% | 105% | 98.4% | 115% | 96.4% | 112% | 101% | 86.8% | 86.5% | 87.5% | 84.3% | 87.8% | 103% | 97.9% | 98.7% | 103% | 99.5% | 97.6% | 76.4% | 92.3% | 103% | 98.9% | 96.1% | 104% | 108% | 113% | 105% | 106% | 105% | 68.8%
10 | OC1CCC(Nc2ncc3nc(Nc4c(F)cc(F)cc4F)n([C@@H]4CCOC4)c3n2)CC1 (some centres undefined) | 112% | 119% | 131% | 143% | 126% | 142% | 143% | 134% | 141% | 131% | 128% | 106% | 113% | 108% | 113% | 107% | 118% | 105% | 110% | 125% | 115% | 121% | 102% | 119% | 115% | 119% | 114% | 128% | 122% | 125% | 135% | 131% | 126%
11 | O=c1[nH]c2ccccc2n1C1CCN(Cc2ccc(-c3nc4cc5nc[nH]c5cc4nc3-c3ccccc3)cc2)CC1 | 95.9% | 126% | 114% | 126% | 133% | 130% | 108% | 97% | 90.7% | 103% | 95.9% | 101% | 119% | 108% | 113% | 123% | 113% | 115% | 107% | 111% | 121% | 118% | 98.8% | 104% | 109% | 105% | 116% | 116% | 103% | 107% | 97.9% | 115% | 102%
12 | Cc1c(NC(=O)OC[C@@H]2COCCN2)cn2ncnc(Nc3ccc4c(cnn4Cc4cccc(F)c4)c3)c12 | 67.5% | 75.4% | 80.3% | 90.6% | 93.2% | 102% | 92.8% | 76% | 88.7% | 60.5% | 18.6% | 97.2% | 86.6% | 85.2% | 93.5% | 91.6% | 89.5% | 89.9% | 92.7% | 84.6% | 74.9% | 40% | 77.6% | 80.4% | 86.3% | 85.8% | 88.3% | 86.5% | 89% | 91.7% | 89.4% | 80.3% | 37.5%
13 | N#Cc1c(NC(=O)c2cccc3ccccc23)sc2c1CCCC2 |  |  |  |  |  |  |  |  |  |  |  | 120% | 142% | 118% | 128% | 139% | 134% | 127% | 25.4% | 26.1% | 21.7% | 21% |  |  |  |  |  |  |  |  |  |  | 
14 | Nc1ncnc2c1c(-c1cnc3[nH]ccc3c1)nn2C1CCCC1 |  |  |  |  |  |  |  |  |  |  |  | 108% | 120% | 141% | 135% | 119% | 114% | 112% | 93.5% | 66.7% | 54.4% | 45.4% | 106% | 119% | 103% | 109% | 131% | 100% | 104% | 81.7% | 61.8% | 52.8% | 45.8%
15 | O=C(O)C1=NC(C(=O)O)CC(/C=C/N2c3cc(O)c(OC4OC(CO)C(O)C(O)C4O)cc3CC2C(=O)O)=C1 (centres undefined) | 111% | 111% | 115% | 103% | 117% | 106% | 99.1% | 109% | 98.7% | 107% | 109% | 86.4% | 86.7% | 94.2% | 99.4% | 119% | 108% | 98.4% | 93.5% | 94% | 90.6% | 104% | 104% | 101% | 101% | 113% | 104% | 101% | 94.2% | 98.2% | 92.4% | 104% | 117%
16 | Nc1nc(N)c2nc(CNc3ccc(C(=O)NC(CCC(=O)O)C(=O)O)cc3)cnc2n1 (centres undefined) | 105% | 123% | 118% | 112% | 97.5% | 70.4% | 49.8% | 57.1% | 57.4% | 61.4% | 65.2% | 97.1% | 95.9% | 103% | 102% | 92.9% | 118% | 103% | 106% | 112% | 133% | 117% | 119% | 117% | 118% | 131% | 72.7% | 42.9% | 38.3% | 45% | 46% | 38.9% | 40.1%
